Data from a melting point compilation (Tetko et al.; mined from patent text by program, amines drawn as free bases though some values may be those of a salt).

Compound | melting point [°C]
C[C@@H](NC(=O)[C@H](Cc1ccc(O)cc1)NC(=O)OC(C)(C)C)C(=O)NCC(=O)Oc1c(Cl)c(Cl)c(Cl)c(Cl)c1Cl | 222
Cc1cncn1CC#Cc1cc(CN2CCOCC2)cc2c(=O)c(C(=O)NCc3ccc(Cl)cc3)cn(C)c12 | 149 to 152
COc1nc(C(Cl)(Cl)Cl)c(Cl)c(OC)c1Cl | 67 to 69
Cn1c([N+](=O)[O-])cnc1COc1ccc(S(C)(=O)=O)cc1 | 155
CCCCCCCCCCCCCCCCCCSC(=O)Nc1ccccc1 | 85.5 to 86.5
Cc1ccc(N2CCCN(c3ccnc4sc(C(N)=O)c(N)c34)CC2)cc1F | 79 to 83
Cc1nc(C)c(Cl)c(NCc2nccc(N(C)CCCSCCn3c([N+](=O)[O-])cnc3C)c2Cl)n1 | 123 to 126
CCCCCCCCC/C=C/C(=O)N[C@H]1CCCNC(=O)C1 | 87 to 88
Cc1cc(C#N)c(C)c(C(=O)Nc2ccc(Cl)cn2)n1 | 264
CN1CC[C@@H](c2c(O)cc(O)c3c(=O)cc(-c4ccc([N+](=O)[O-])cc4Br)oc23)[C@@H]1CO | 186
CC[C@H]1CC[C@H](CCc2ccc(-c3ccc(C#N)cc3)c(F)c2)CC1 | 65.4
CCNc1nc(Cl)cc(NC2CC2)n1 | 86 to 88
C[C@]1(CN2CCC(OCc3ccc(C(F)(F)F)cc3)CC2)Cn2cc([N+](=O)[O-])nc2O1 | 91 to 92
COC(=O)c1nccnc1Br | 43 to 45
N#CC1=C(c2ccco2)Nc2n[nH]cc2C1c1cccc2nonc12 (stereo unspecified) | 237
CN(C)C(=O)c1csc(N(C)CC#CI)n1 | 148 to 150
CC12C=CC(=O)C=C1C(Br)CC1C2CCC2(C)C(=O)CCC12 (stereo unspecified) | 188 to 190

Compound | melting point [°C]
CC(O)c1cc(C(F)(F)F)cc(S(N)(=O)=O)c1 (stereo unspecified) | 169 to 170
N#CCc1ccccc1O | 118
CCN(CC)C(=O)c1c(C=O)ccnc1OC | < 50
C=Cc1ncn2c1[C@@H]1CCCN1C(=O)c1c(Cl)cccc1-2 | 213 to 215
Oc1ccc2c(c1)COc1c-2cc2ccc(O)cc2c1-c1ccncc1 | > 250
CCOC(=O)c1cnc(O)c2c(C)n[nH]c12 | 310
Nc1nc(OCCC2CCCCC2)c2[nH]cnc2n1 | 210
Cc1cc(C)c(S(=O)(=O)OCCC2CCN(S(=O)(=O)c3c(C)cc(C)cc3C)CC2)c(C)c1 | 93.5 to 94
O=C1NC(=O)C2(c3cc(O)c(Cl)cc3F)CCCCC12 (stereo unspecified) | 140 to 141
CCOC(=O)C(C)=NNc1ccc(C(O)(C(F)(F)F)C(F)(F)F)cc1 | 167 to 168
Cn1cnc2c(cnn2-c2ncc(C(F)(F)F)cc2Cl)c1=O | 253
C=CCC1(CC)C(=O)NC(=O)NC1=O | 157 to 159
Cc1csc2c(C(=O)O)c(=O)c3cc4c(cc3n12)OCO4 | 303 to 305
CC=C(NC(=O)C1CC1(Cl)Cl)C(=O)O (stereo unspecified) | 188 to 190
CCOCc1nc2c(N)nc3cc(Br)cnc3c2n1CC(C)(C)F | 221 to 222
COC12CC(CCOC(=O)c3cncc(Br)c3)CN(C)C1Cc1cn(C)c3cccc2c13 (stereo unspecified) | 187 to 190
O=C(OCC(Cl)(Cl)Cl)N1C2CCC1CC(Sc1ccc(F)cc1)C2 (stereo unspecified) | 65 to 67

The next lines start with the values.

melting point [°C] | Compound
84 to 85 | COc1cc(C(C)=O)ccc1-c1ccccc1F
215 to 218 | N#CC(=C1Nc2ccccc2O1)S(=O)(=O)c1ccccc1
140 to 141 | CCCN(C(=O)Oc1ccccc1)C1Cc2ccc(-c3ccc(=O)[nH]n3)cc2C1 (stereo unspecified)
50 to 52 | CCCCCCCCCCCCCCCC(CC)OCC(=O)c1ccccc1 (stereo unspecified)
183 to 186 | CCCC(NS(=O)(=O)c1ccc(NC(C)=O)cc1)P(=O)(Oc1ccccc1)Oc1ccccc1 (stereo unspecified)
132 to 134 | COC(=O)C1CCCN(C(=O)OCc2ccccc2)N1C(=O)C(Br)CBr (stereo unspecified)
117 to 119 | c1cncc(-c2cnc3ccccc3c2)c1
131 to 132 | CCSCCNC(=O)Nc1ccccc1CCc1cc(C(C)(C)C)c(O)c(C(C)(C)C)c1
> 270 | NC(=O)c1nc(-c2cccc(O)c2)nc2c1[nH]c(=O)n2-c1ccccc1C1CCCCC1
90 to 92 | CCCC(=O)NCCC1=CCc2cc(F)c(OC)cc21
162 to 163 | NC(=O)NCC1CCCc2cc(NS(=O)(=O)c3cccc(F)c3)ccc21 (stereo unspecified)
163 to 165 | CO/C=C(/C(=O)OC)c1cccnc1Oc1cccc(O)c1
69 to 71 | CSc1ccc(C(=O)C(C)CC(=O)O)cc1 (stereo unspecified)
83 to 84.5 | COc1ccc(/C=C/c2ccncn2)cc1OC1CCCC1
246 to 247 | COc1ccc2ncc(CC(N)C(=O)O)cc2c1 (stereo unspecified)
122 to 123 | CCOC(=O)c1cn(CC)c2nc(C)ccc2c1=O
200 to 201 | Cc1oc(-c2ccccc2)nc1COc1ccc2c(-c3ccccc3)c(COc3nn(-c4ccccc4)cc3C(=O)O)oc2c1
141 to 142 | CCOc1cc(CO)ccc1OCc1nc(-c2ccco2)oc1C
118 to 120 | O=C(CNC(=O)c1ccc([N+](=O)[O-])c(F)c1)OCc1ccccc1

melting point [°C] | Compound
144 to 147 | CCSc1nc2c(C)sc(C(=O)O)c2n1Cc1ccc(-c2ccccc2-c2nc(=O)[nH]o2)cc1
275 to 280 | COc1cc(Nc2ncnc3cc4cc(OCc5ccccc5)c(OC)cc4cc23)c(Cl)cc1Cl
103 | CCOC(=O)C(Sc1ccc(O)cc1)c1ccc(-c2cccs2)cc1 (stereo unspecified)
179 to 180 | C=CCn1c(=O)c2c(nc(/C=C/c3cc(OC)c(OC(=O)c4ccccc4)c(OC)c3)n2C)n(CC=C)c1=O
90 to 95 | CCCc1c(SCCCCSc2nc3ccc(C(=O)O)cc3[nH]2)ccc(C(C)=O)c1O
128 to 130 | O=C(O)CCCCCCCCCCC(=O)Nc1ccccc1OCCCC(=O)O
123 | COC(=O)c1ccc(OC(=C(Oc2ccc(C(=O)OC)cc2)C(F)(F)F)C(F)(F)F)cc1
160 to 163 | COC(=O)C1=C(N)OC(C)=C(C(C)=O)C1c1cccc([N+](=O)[O-])c1 (stereo unspecified)
230 to 232 | Cc1ccc(C(=O)Nc2ccccc2C#N)c([N+](=O)[O-])c1
158 to 161 | O=C1C(=Cn2ccnc2)c2ccccc2N1c1ccccc1
180 to 183 | COc1cc(OC)nc(C2(OC)OC(=O)c3c(Cl)cccc32)n1 (stereo unspecified)
178 to 181 | CNC(=O)C[C@@H](c1ccccc1)c1c[nH]c2cccc(OC)c12
153 | CCCCNS(=O)(=O)c1cccc(NC(=O)NS(=O)(=O)c2ccc(C)cc2)c1
174 to 175 | NS(=O)(=O)c1cc(S(N)(=O)=O)c(-c2ccccc2)cc1F
227 to 228 | N#Cc1cc(NC(=O)c2sc3ccccc3c2Cl)ccc1N1CCC(N2CCOCC2)CC1
198 | CC(C)(C)OC(=O)Nc1ccccc1NC(=O)c1ccc(C(=O)Nc2cccc(Nc3nc(-c4cccnc4)cs3)c2)s1
158 to 170 | CCCCC(OC(=O)c1ccccc1)P(=O)(O)OC(CCCCN)C(=O)N1CCCC1C(=O)O (stereo unspecified)
93 to 94 | c1ccc(-c2nc(COc3ccc(CCCCn4ccnc4)cc3)cs2)cc1
